Measured values reported in patent US8192962B2, “Processes for detecting toxic substances” (Daikin Industries, Ltd., priority 2001, dated 2012).

System: Unknown protein yeast genes
Assay: DNA chip mRNA expression in yeast, unknown protein yeast genes (Table 1)
Type: cell-based, Saccharomyces cerevisiae S288C
Summary of the method: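 Cells were grown at 25° C. in YPD, treated at logarithmic phase for 2 h with a chemical at a concentration inhibiting growth but not causing death, and compared with untreated cultures. Labeled cDNA was hybridized to a DNA chip carrying all yeast genes, and the expression ratio was taken from scanner fluorescence.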

Measured: The level of expressed mRNA in the presence of chemical substance/The level of expressed mRNA in the absence of chemical substance

Cl[C@H]1[C@H](Cl)[C@@H](Cl)[C@@H](Cl)[C@H](Cl)[C@H]1Cl [(7), γ-hexachlorocyclohexane]
1.8: yeast gene YDL072C, incubated two hours with chemical substance | yeast gene YIL087C, incubated two hours with chemical substance | yeast gene YMR102C, incubated two hours with chemical substance | yeast gene YNR068C, incubated two hours with chemical substance
0.7: yeast gene YAL053W, incubated two hours with chemical substance | yeast gene YKL086W, incubated two hours with chemical substance | yeast gene YML117W, incubated two hours with chemical substance
2.8: yeast gene YOR019W, incubated two hours with chemical substance
1.4: yeast gene YER004W, incubated two hours with chemical substance | yeast gene YJL151C, incubated two hours with chemical substance | yeast gene YJL171C, incubated two hours with chemical substance | yeast gene YLR152C, incubated two hours with chemical substance | yeast gene YOL032W, incubated two hours with chemical substance
2.5: yeast gene YOL082W, incubated two hours with chemical substance
1.3: yeast gene YDR330W, incubated two hours with chemical substance | yeast gene YGL199C, incubated two hours with chemical substance | yeast gene YGR130C, incubated two hours with chemical substance | yeast gene YKR091W, incubated two hours with chemical substance | yeast gene YMR295C, incubated two hours with chemical substance | yeast gene YOL047C, incubated two hours with chemical substance | yeast gene YOL131W, incubated two hours with chemical substance
1.7: yeast gene YGL047W, incubated two hours with chemical substance | yeast gene YGR110W | yeast gene YMR180C, incubated two hours with chemical substance | yeast gene YNL305C, incubated two hours with chemical substance
4.7: yeast gene YGL121C
1.6: yeast gene YJL066C, incubated two hours with chemical substance | yeast gene YLR149C, incubated two hours with chemical substance | yeast gene YMR184W, incubated two hours with chemical substance | yeast gene YNL092W, incubated two hours with chemical substance | yeast gene YOL117W, incubated two hours with chemical substance
2.1: yeast gene YBL107C | yeast gene YKL195W, incubated two hours with chemical substance
3.1: yeast gene YOL083W, incubated two hours with chemical substance
3.3: yeast gene YFL024C
0.4: yeast gene YJL082W, incubated two hours with chemical substance
3.0: yeast gene YHR138C, incubated two hours with chemical substance
1.9: yeast gene YBL048W | yeast gene YER035W, incubated two hours with chemical substance | yeast gene YER079W, incubated two hours with chemical substance | yeast gene YMR009W, incubated two hours with chemical substance | yeast gene YNL156C, incubated two hours with chemical substance
2.7: yeast gene YJL057C, incubated two hours with chemical substance | yeast gene YMR090W
3.7: yeast gene YGL053W, incubated two hours with chemical substance | yeast gene YKL071W
1.5: yeast gene YDR511W, incubated two hours with chemical substance | yeast gene YER163C, incubated two hours with chemical substance | yeast gene YFL010C, incubated two hours with chemical substance | yeast gene YGR101W, incubated two hours with chemical substance | yeast gene YMR097C, incubated two hours with chemical substance
0.9: yeast gene YJR054W, incubated two hours with chemical substance | yeast gene YNL044W, incubated two hours with chemical substance | yeast gene YOR197W, incubated two hours with chemical substance
3.2: yeast gene YDL204W, incubated two hours with chemical substance
1.2: yeast gene YDR545W, incubated two hours with chemical substance | yeast gene YER158C, incubated two hours with chemical substance | yeast gene YGR221C, incubated two hours with chemical substance | yeast gene YIL023C, incubated two hours with chemical substance | yeast gene YJL152W, incubated two hours with chemical substance | yeast gene YLR350W, incubated two hours with chemical substance | yeast gene YMR067C, incubated two hours with chemical substance | yeast gene YMR095C, incubated two hours with chemical substance | yeast gene YMR107W, incubated two hours with chemical substance | yeast gene YNL234W, incubated two hours with chemical substance | yeast gene YNL281W, incubated two hours with chemical substance | yeast gene YPL206C, incubated two hours with chemical substance | yeast gene YPR023C, incubated two hours with chemical substance
2.3: yeast gene YER175C, incubated two hours with chemical substance
4.2: yeast gene YPL087W, incubated two hours with chemical substance
2.9: yeast gene YGL037C, incubated two hours with chemical substance | yeast gene YJR008W, incubated two hours with chemical substance
4.4: yeast gene YPR151C, incubated two hours with chemical substance
5.6: yeast gene YKL151C, incubated two hours with chemical substance
0.8: yeast gene YIL041W, incubated two hours with chemical substance
3.6: yeast gene YJL161W, incubated two hours with chemical substance
1.1: yeast gene YEL001C, incubated two hours with chemical substance | yeast gene YFL032W, incubated two hours with chemical substance | yeast gene YHR199C, incubated two hours with chemical substance | yeast gene YKL153W, incubated two hours with chemical substance | yeast gene YLR054C, incubated two hours with chemical substance | yeast gene YLR387C, incubated two hours with chemical substance | yeast gene YLR460C | yeast gene YNL074C, incubated two hours with chemical substance | yeast gene YPL222W, incubated two hours with chemical substance
2.0: yeast gene YDR411C, incubated two hours with chemical substance | yeast gene YGR154C, incubated two hours with chemical substance | yeast gene YMR191W, incubated two hours with chemical substance | yeast gene YMR316W, incubated two hours with chemical substance | yeast gene YOL071W, incubated two hours with chemical substance | yeast gene YOL162W, incubated two hours with chemical substance
1.0: yeast gene YDL222C, incubated two hours with chemical substance | yeast gene YER106W, incubated two hours with chemical substance | yeast gene YFL006W, incubated two hours with chemical substance | yeast gene YLR194C, incubated two hours with chemical substance | yeast gene YLR324W, incubated two hours with chemical substance | yeast gene YOL036W, incubated two hours with chemical substance
2.4: yeast gene YNL115C, incubated two hours with chemical substance | yeast gene YOL150C | yeast gene YPL196W, incubated two hours with chemical substance
